Measurements reported in patent US20070009891A1, “Method for the isolation of expressed sequence tags in plants” (Metapontum Agrobios S.R.L., priority 2003, published 2007).

How the values were obtained:
[1] = tested on: hard corn seedlings; assay: Germination of hard corn seeds on MSO medium with 5-azaC: seedling phenotype; format: in vivo, Triticum durum; conditions: increasing concentration of 5-azaC (0.1-1 mM), aerial part and roots, 24° C. in the dark
Description: According to this method, the germination of the seeds is generally effected at a temperature ranging from 20 to 30° C., preferably from 22 to 26° C., in the dark and in the presence of concentrations of 5-azaC ranging from 0.1 mM to 2 mM, preferably from 0.3 mM to 0.5 mM.
Seeds of hard corn (Triticum durum) were sterilized in a solution of ethyl alcohol at 70% for 10 minutes under stirring. After eliminating the ethanol, the seeds were treated with a solution containing sodium hypochlorite (ACE) at 50% and Sodium Dodecyl Sulfate (SDS) at 0.5%, incubated at room temperature for 20 minutes under light stirring.
The seeds were subsequently washed with sterile H2O until the complete removal of the foam (about 7-8 times) and about 15-20 seeds were then placed in a Magenta Box each containing: 30 ml of MSO substrate (Sucrose 15 g/l, Muraschige-Sckug MS salts 2.2 g/l, Thiamin 0.2 mg/l, Myoinositol 50 mg/l, pH 5.6, agar 7 g/l), different concentrations of 5-azac (0.1 mM, 0.3 mM, 0.5 mM and 1 mM) and germinated in a chamber thermostat-regulated at 24° C. in the dark.
Seeds of hard corn left to germinate in MSO medium without 5-azac, were used as a control.

[2] = tested on: genomic DNA of hard corn; assay: Digestion of genomic DNA with restriction enzymes sensitive to methylation (CfoI, Hpa2, Msp1); parameters: species or system Triticum durum; conditions: seedlings about 21 days after germination; 5-azaC 0.1, 0.3, 0.5, 1 mM vs control
Description: Analyses for correlating the demethylation degree of the DNA with an increase in the undifferentiated gene expression were carried out by digestion of the genomic DNA with restriction enzymes sensitive to methylation, i.e. enzymes which preferentially act on hypomethylated DNA.
Analyses for correlating the demethylation degree of the DNA with an increase in the undifferentiated gene expression were carried out by digesting the genomic DNA with the following restriction enzymes: Cfol, Hpa2, Msp1 (Roche), sensitive to methylation.
For each reaction, about 5 μg of total DNA were digested with 20 units of enzyme in a final volume of 150 μl, for a night at 37° C. Each digestion product was precipitated and resuspended in 30μl of H2O. The digestion mixtures were separated on agarose gel at 0.8% and subjected to horizontal electrophoresis, for a night at […] (Sambrook, J. et al., 1989, Cold Spring Harbor Laboratory Press).

[3] = tested on: undifferentiated gene expression in hard corn seedlings; assay: RT-PCR amplification and sequencing of genes expressed in different growth phases, from seedlings germinated with 5-AzaCytidine; parameters: species or system Triticum durum; conditions: MSO germination medium; 0.1-1 mM tested
Excerpt: Furthermore, to confirm the efficiency of the method used, several genes were identified which are expressed in different growth phases of soft corn, of which a large number of sequences are available as this species of corn is more widely studied that hard corn. On the basis of the sequences deposited in data banks (National Center for Biotechnology Information, NCBI; European Bioinformatics Institute, EBI) pairs of oligonucleotides identified in the zones flanking the region encoding the nucleotidic sequence, were prepared, and subsequently used as primers for the amplification of the whole gene being tested. […]
The cDNA inserts were first amplified with the appropriate primers, cloned in the vector p-GEMT and introduced into the competent cells Escherichia coli (E. coli) DH5α. The recombinant clones, containing the expected fragments, were characterized by restriction analysis and their identity was confirmed by effecting sequence reactions carried out using the ABI Prism Big TaqDyeDeoxyTerminator Cycle Sequencing Kit (Applied Biosystems, Nr. 4303149) and analyzed with the automatic ABI 377 DNA Sequencer (Perkin Elmer ABI Prism). […]

Nc1ncn([C@@H]2O[C@H](CO)[C@@H](O)[C@H]2O)c(=O)n1 [5-azaC, 5-AzaCytidine]
phenotype of the seedlings compared with control cultivated without 5-azaC [1]: slowing down in the development of the seedlings
digestion of the genomic DNA by methylation-sensitive restriction enzymes (demethylation degree) [2]: different digestion of the genomic DNA
concentration in the germination medium giving the best results (totipotent gene expression) [3]: 0.3 to 0.5 mM
